Source: PubChem BioAssay AID2060503 (Molecular Pharmacology Branch, DTP, NCI, 2025)

System: 817829-284-R-J1-PDC complex spheroids, viability
Assay: Anticancer human tumor 817829-284-R-J1-PDC patient-derived colon adenocarcinoma cell line growth inhibition [GQUAD]
Conditions: for IC50: curve of first compound; for viability, T/C: stronger effect = lower value
Method in brief: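 Multi-cell-type spheroids of tumor cells with HUVEC and mesenchymal stem cells, treated with drug combinations. Concentrations descend in half-log steps from near clinical Cmax, or from 10 microM where Cmax is unknown; viability read-out.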

[1] = second compound 0.0316 µM, first compound 0.0316 µM
[2] = second compound 0.0316 µM, first compound 0.1 µM
[3] = second compound 0.0316 µM, first compound 0.316 µM
[4] = second compound 0.0316 µM, first compound 1 µM
[5] = second compound 0.0316 µM, first compound 3.16 µM
[6] = second compound 0.0316 µM, first compound 10 µM
[7] = second compound 0.1 µM, first compound 0.0316 µM
[8] = second compound 0.1 µM, first compound 0.1 µM
[9] = second compound 0.1 µM, first compound 0.316 µM
[10] = second compound 0.1 µM, first compound 1 µM
[11] = second compound 0.1 µM, first compound 3.16 µM
[12] = second compound 0.1 µM, first compound 10 µM
[13] = second compound 0.316 µM, first compound 0.0316 µM
[14] = second compound 0.316 µM, first compound 0.1 µM
[15] = second compound 0.316 µM, first compound 0.316 µM
[16] = second compound 0.316 µM, first compound 1 µM
[17] = second compound 0.316 µM, first compound 3.16 µM
[18] = second compound 0.316 µM, first compound 10 µM
[19] = second compound 1 µM, first compound 0.0316 µM
[20] = second compound 1 µM, first compound 0.1 µM
[21] = second compound 1 µM, first compound 0.316 µM
[22] = second compound 1 µM, first compound 1 µM
[23] = second compound 1 µM, first compound 3.16 µM
[24] = second compound 1 µM, first compound 10 µM
[25] = second compound 3.16 µM, first compound 0.0316 µM
[26] = second compound 3.16 µM, first compound 0.1 µM
[27] = second compound 3.16 µM, first compound 0.316 µM
[28] = second compound 3.16 µM, first compound 1 µM
[29] = second compound 3.16 µM, first compound 3.16 µM
[30] = second compound 3.16 µM, first compound 10 µM
[31] = second compound 10 µM, first compound 0.0316 µM
[32] = second compound 10 µM, first compound 0.1 µM
[33] = second compound 10 µM, first compound 0.316 µM
[34] = second compound 10 µM, first compound 1 µM
[35] = second compound 10 µM, first compound 3.16 µM
[36] = second compound 10 µM, first compound 10 µM
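Further: spheroids exposed to agents for 7 days before readout.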
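Wherever viability, T/C is given: percent viability relative to DMSO vehicle control taken as 100%.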

Nc1ccn(C2OC(CO)C(O)C2(F)F)c(=O)n1 (stereo not given) + CN(C)c1ccc(Nc2c3ccc(NC(=O)CCN4CCCC4)cc3nc3cc(NC(=O)CCN4CCCC4)ccc23)cc1
IC50 (second compound 0.0316 µM): < 31.6 nM | IC50 (second compound 0.1 µM): < 31.6 nM | IC50 (second compound 0.316 µM): < 31.6 nM | IC50 (second compound 1 µM): < 31.6 nM | IC50 (second compound 3.16 µM): < 31.6 nM | IC50 (second compound 10 µM): < 31.6 nM | viability, T/C [1]: 11.1% | viability, T/C [2]: 6.76% | viability, T/C [3]: 7.53% | viability, T/C [4]: 6.63% | viability, T/C [5]: 5.22% | viability, T/C [6]: 3.38% | viability, T/C [7]: 11.5% | viability, T/C [8]: 7.05% | viability, T/C [9]: 7.75% | viability, T/C [10]: 7.5% | viability, T/C [11]: 5.74% | viability, T/C [12]: 4.58% | viability, T/C [13]: 10.2% | viability, T/C [14]: 7.22% | viability, T/C [15]: 7.51% | viability, T/C [16]: 6.86% | viability, T/C [17]: 5.17% | viability, T/C [18]: 3.32% | viability, T/C [19]: 10.5% | viability, T/C [20]: 5.85% | viability, T/C [21]: 7.62% | viability, T/C [22]: 8.41% | viability, T/C [23]: 6.53% | viability, T/C [24]: 3.73% | viability, T/C [25]: 8.54% | viability, T/C [26]: 7.05% | viability, T/C [27]: 8.46% | viability, T/C [28]: 8.5% | viability, T/C [29]: 6.92% | viability, T/C [30]: 3.39% | viability, T/C [31]: 10.7% | viability, T/C [32]: 9.04% | viability, T/C [33]: 8.83% | viability, T/C [34]: 8.64% | viability, T/C [35]: 6.59% | viability, T/C [36]: 4.48%

COc1ncnc(C2CC2)c1-c1ncc2cnn(Cc3ccc(-c4nc(C(F)(F)F)cn4C(C)C)cc3)c2n1 + Cc1[nH]c2ccc(F)cc2c1-c1nc2c3cccnc3c3ncccc3c2[nH]1
IC50 (second compound 0.0316 µM): > 10000 nM | IC50 (second compound 0.1 µM): > 10000 nM | IC50 (second compound 0.316 µM): > 10000 nM | IC50 (second compound 1 µM): > 10000 nM | IC50 (second compound 3.16 µM): > 10000 nM | IC50 (second compound 10 µM): 32 nM | viability, T/C [1]: 99.1% | viability, T/C [2]: 113% | viability, T/C [3]: 101% | viability, T/C [4]: 97.9% | viability, T/C [5]: 113% | viability, T/C [6]: 109% | viability, T/C [7]: 96.6% | viability, T/C [8]: 115% | viability, T/C [9]: 99.8% | viability, T/C [10]: 111% | viability, T/C [11]: 108% | viability, T/C [12]: 115% | viability, T/C [13]: 105% | viability, T/C [14]: 119% | viability, T/C [15]: 101% | viability, T/C [16]: 94.2% | viability, T/C [17]: 110% | viability, T/C [18]: 129% | viability, T/C [19]: 118% | viability, T/C [20]: 105% | viability, T/C [21]: 117% | viability, T/C [22]: 98.9% | viability, T/C [23]: 108% | viability, T/C [24]: 118% | viability, T/C [25]: 63.5% | viability, T/C [26]: 73.5% | viability, T/C [27]: 56.4% | viability, T/C [28]: 79.9% | viability, T/C [29]: 84.8% | viability, T/C [30]: 68.7% | viability, T/C [31]: 50.2% | viability, T/C [32]: 26.4% | viability, T/C [33]: 27.8% | viability, T/C [34]: 40.9% | viability, T/C [35]: 15.1% | viability, T/C [36]: 18.8%

COc1cc(C2c3cc4c(cc3C(OC3OC5COC(C)OC5C(O)C3O)C3COC(=O)C23)OCO4)cc(OC)c1O (stereo not given) + Cc1[nH]c2ccc(F)cc2c1-c1nc2c3cccnc3c3ncccc3c2[nH]1
IC50 (second compound 0.0316 µM): 184 nM | IC50 (second compound 0.1 µM): 216 nM | IC50 (second compound 0.316 µM): 191 nM | IC50 (second compound 1 µM): 214 nM | IC50 (second compound 3.16 µM): 113 nM | IC50 (second compound 10 µM): 44.8 nM | viability, T/C [1]: 110% | viability, T/C [2]: 67.2% | viability, T/C [3]: 31.6% | viability, T/C [4]: 27.2% | viability, T/C [5]: 28.1% | viability, T/C [6]: 10.6% | viability, T/C [7]: 95.3% | viability, T/C [8]: 91.2% | viability, T/C [9]: 29.5% | viability, T/C [10]: 31.8% | viability, T/C [11]: 26% | viability, T/C [12]: 9.21% | viability, T/C [13]: 86.7% | viability, T/C [14]: 80.4% | viability, T/C [15]: 26.4% | viability, T/C [16]: 32.7% | viability, T/C [17]: 28.9% | viability, T/C [18]: 9.89% | viability, T/C [19]: 85.6% | viability, T/C [20]: 89.7% | viability, T/C [21]: 30.7% | viability, T/C [22]: 30.4% | viability, T/C [23]: 25.1% | viability, T/C [24]: 9.74% | viability, T/C [25]: 109% | viability, T/C [26]: 54.1% | viability, T/C [27]: 16.8% | viability, T/C [28]: 15.2% | viability, T/C [29]: 17.8% | viability, T/C [30]: 3.63% | viability, T/C [31]: 60.5% | viability, T/C [32]: 26.2% | viability, T/C [33]: 9.53% | viability, T/C [34]: 8.4% | viability, T/C [35]: 6.82% | viability, T/C [36]: 2.64%

O=c1[nH]cc(F)c(=O)[nH]1 + CN(C)c1ccc(Nc2c3ccc(NC(=O)CCN4CCCC4)cc3nc3cc(NC(=O)CCN4CCCC4)ccc23)cc1
IC50 (second compound 0.0316 µM): 2120 nM | IC50 (second compound 0.1 µM): 2450 nM | IC50 (second compound 0.316 µM): 2400 nM | IC50 (second compound 1 µM): 2700 nM | IC50 (second compound 3.16 µM): 2510 nM | IC50 (second compound 10 µM): 2690 nM | viability, T/C [1]: 112% | viability, T/C [2]: 104% | viability, T/C [3]: 119% | viability, T/C [4]: 73.4% | viability, T/C [5]: 44.2% | viability, T/C [6]: 30.7% | viability, T/C [7]: 101% | viability, T/C [8]: 102% | viability, T/C [9]: 94.3% | viability, T/C [10]: 84.3% | viability, T/C [11]: 39.9% | viability, T/C [12]: 29.3% | viability, T/C [13]: 102% | viability, T/C [14]: 106% | viability, T/C [15]: 97.1% | viability, T/C [16]: 78.7% | viability, T/C [17]: 40.7% | viability, T/C [18]: 29.6% | viability, T/C [19]: 99.5% | viability, T/C [20]: 101% | viability, T/C [21]: 108% | viability, T/C [22]: 83% | viability, T/C [23]: 45.7% | viability, T/C [24]: 31.6% | viability, T/C [25]: 91.2% | viability, T/C [26]: 96.7% | viability, T/C [27]: 102% | viability, T/C [28]: 74.1% | viability, T/C [29]: 45.4% | viability, T/C [30]: 29% | viability, T/C [31]: 102% | viability, T/C [32]: 95.9% | viability, T/C [33]: 100% | viability, T/C [34]: 80.5% | viability, T/C [35]: 45.3% | viability, T/C [36]: 31.9%

Nc1ccn(C2OC(CO)C(O)C2(F)F)c(=O)n1 (stereo not given) + Cc1cnc(CNC(=O)c2c(=O)c3ccc(N4CCCN(C)CC4)nc3n3c2sc2ccccc23)cn1
IC50 (second compound 0.0316 µM): < 31.6 nM | IC50 (second compound 0.1 µM): < 31.6 nM | IC50 (second compound 0.316 µM): < 31.6 nM | IC50 (second compound 1 µM): < 31.6 nM | IC50 (second compound 3.16 µM): < 31.6 nM | IC50 (second compound 10 µM): < 31.6 nM | viability, T/C [1]: 17.2% | viability, T/C [2]: 7.44% | viability, T/C [3]: 7.25% | viability, T/C [4]: 5.51% | viability, T/C [5]: 5.09% | viability, T/C [6]: 3.11% | viability, T/C [7]: 18% | viability, T/C [8]: 10.7% | viability, T/C [9]: 5.49% | viability, T/C [10]: 7.04% | viability, T/C [11]: 6.51% | viability, T/C [12]: 4.03% | viability, T/C [13]: 15.3% | viability, T/C [14]: 11.4% | viability, T/C [15]: 8.25% | viability, T/C [16]: 7.77% | viability, T/C [17]: 4.4% | viability, T/C [18]: 3.63% | viability, T/C [19]: 15.6% | viability, T/C [20]: 10.3% | viability, T/C [21]: 7.69% | viability, T/C [22]: 5.93% | viability, T/C [23]: 4.41% | viability, T/C [24]: 2.57% | viability, T/C [25]: 15% | viability, T/C [26]: 8.99% | viability, T/C [27]: 5.76% | viability, T/C [28]: 5.67% | viability, T/C [29]: 1% | viability, T/C [30]: 0.14% | viability, T/C [31]: 0.09% | viability, T/C [32]: 0.13% | viability, T/C [33]: 0.12% | viability, T/C [34]: 0.12% | viability, T/C [35]: 0.14% | viability, T/C [36]: 0.15%
